Read-outs that look alike come from different tables or passages of the source.
Key:
[1] = test system: ICR mice; test: Tail suspension test; assay type: in vivo; conditions: TST, oral, 1 h after administration, deDM 10 and 18 mg/kg, BUP 50 mg/kg, deDM + BUP 10 + 50 and 18 + 50 mg/kg
Method: The TST was adapted from the behavioral despair test described by Nguyen et al. ([Nguyen et al., 2017]), with some modifications. […] All compounds were administered orally via gavage at a volume of 10 mL/kg body weight, with the vehicle group receiving an equivalent volume of saline. One hour after administration, mice underwent a tail suspension test (TST). For the TST, each mouse was suspended by its tail, with adhesive tape attached 2 cm from the tail tip and secured to a metal rod. Care was taken to ensure a minimum distance of 15 cm between the suspended animal and the surrounding objects. The test was performed using the ANY-maze version 4.63 video tracking program (Stoelting Co., Wood Dale, IL, United States) for a total duration of 6 min. The initial 2 min served as an acclimatization period and were not scored. The immobility time during the subsequent 4 min was measured using the same software. Immobility was defined as mouse hanging passively and motionless. The ANY-Maze software parameters were set as follows: acclimatization period = 120 s, test duration = 240 s, minimum immobility time = 2 s, and immobility sensitivity = 75%. […]

[2] = test system: ICR mice; test: Forced swim test; assay type: in vivo; conditions: FST, oral, 1 h after administration, deDM 10 and 18 mg/kg, BUP 50 mg/kg, deDM + BUP 10 + 50 and 18 + 50 mg/kg
Method: The mouse forced swim test was performed in a way similar to that published previously by Nguyen et al. ([Nguyen et al., 2017]) with some modifications. […] All compounds were administered orally via gavage at a volume of 10 mL/kg body weight, with the vehicle group receiving an equivalent volume of saline. 1 h after administration, mice underwent the forced swim test (FST), a widely used behavioral assay for evaluating antidepressant-like effects. Each mouse was individually placed in a transparent cylindrical tank filled with water (depth: 18 cm, temperature: 25°C ± 1°C) for a 6-min test session. The initial 2 min served as the acclimatization period and was not scored. Floating time during the subsequent 4 min was measured using ANY-Maze Version 4.63 video tracking software (Stoelting Co., Illinois, United States). Floating was defined as the minimum movement required to keep the animal’s head above water. Floating time (%) = floatting time(s)/240 s. The ANY-Maze software parameters were set as follows: acclimatization period = 120 s, test duration = 240 s, minimum immobility time = 2 s, and immobility sensitivity = 75%. To maintain consistent conditions, water was changed between the animals. […]

[3] = test system: Sprague-Dawley rats; test: Reserpine-induced hypothermia in rats; assay type: in vivo; conditions: reserpine 4 mg/kg i.p. rats, oral, 30 min after treatment; BUP 40 mg/kg, deDM 5 and 10 mg/kg, deDM + BUP 5 + 40 and 10 + 40 mg/kg
Method: A reserpine-induced hypothermia test was performed according to the method described by Rojas-Corrales et al. ([Rojas-Corrales et al., 2004]; [Dhamija et al., 2017]), with some modifications. 80 male Sprague-Dawley rats were administered an intraperitoneal injection of reserpine (4 mg/kg). 18 h after the injection, rectal temperatures were measured using a rectal probe connected to a thermometer (MC-347, Omron Healthcare, Dalian, China). Rats with body temperatures not exceeding 34.5°C were considered successfully modeled. […] An additional group of ten rats not treated with reserpine served as the normal control. After the group assignment, the second phase of compound administration was initiated. The normal and model control groups received oral saline (10 mL/kg), whereas the other groups received their respective compounds orally at the specified doses, all in an equivalent volume (10 mL/kg). Rectal temperatures were measured 30 min after treatment to assess the effect of compounds in each group on the reserpine-induced hypothermia model. All experimental procedures were conducted in strict accordance with guidelines approved by the Institutional Animal Care and Use Committee of Shenzhen Salubris Pharmaceuticals Co., Ltd. A P value of less than 0.05 was considered statistically significant for comparisons between groups.

[4] = test system: C57BL/6J mice; test: Ammonia-induced cough mouse model; assay type: in vivo; conditions: oral
Method: Antitussive effects were investigated using a classical mouse cough model induced by ammonia liquor, with some modifications ([Jiang et al., 2014]; [Adejayan et al., 2019]). An ammonia-induced cough model in male C57BL/6J mice was used to evaluate the antitussive effects using a two-step approach. The initial screening phase aimed to identify the mice with consistent and pronounced cough responses. Individual mice were exposed to 0.2 mL of 13% ammonium hydroxide solution in 500 mL glass vials. A trained observer measured the latency period and recorded the number of coughs over a 3-min period post-exposure. […] Following a 24-h recovery period, 70 eligible mice were randomly allocated to seven treatment groups (n = 10 per group) for the compound evaluation phase. […] All compounds were administered orally at a volume of 10 mL/kg. At 0.5 h post-administration, each mouse was re-exposed to 0.2 mL of 13% ammonia in a 500 mL glass jar for 1 min. Subsequently, the trained observer recorded the number of coughs over a 3-min period following removal from the jar. […] All experimental procedures were conducted in strict compliance with guidelines approved by the Institutional Animal Care and Use Committee of Shenzhen Salubris Pharmaceuticals Co., Ltd., ensuring adherence to ethical standards in animal research. A P value of less than 0.05 was considered statistically significant for comparisons between groups.

[5] = Metabolic stability in liver microsomes; assay type: in vitro ADME, human
Method: All incubations were performed in duplicates. Verapamil was used as the positive control. After pre-warming the mixture for 5 min, reactions were initiated by the addition of NADPH (1 mM). Samples (30 μL) were taken at 0, 20, and 60 min, and the reaction was immediately terminated by adding 150 μL acetonitrile containing an analytical internal standard (IS). Samples were centrifuged at 4,000 rpm for 5 min in a centrifuge (5810R, Eppendorf, Germany), and the supernatant was analyzed by LC-MS/MS (Thermo Scientific TSQ Quantum Ultra, United States).
The in vivo clearance values (CLint = CLint, in vitro × (mg protein/g liver weight) × (g liver weight/kg body weight)) of humans were predicted by CLint, in vitro values using physiologically-based scaling factors, hepatic microsomal protein concentrations (48.8 mg protein/g liver), and liver weights (25.7 g/kg body weight). The in vivo hepatic clearance (CLH= (Q × CLint)/(Q + CLint)) was then calculated by using CLint and hepatic blood flow, Q (20.7 mL·min^−1·kg^−1 in humans).

[6] = Pharmacokinetics in male SD rat after oral administration; assay type: in vivo; conditions: male, SD, rat, in vivo, po, 50 mg/kg
Description: Results expressed as mean, n=3 per group

[7] = molecular target: T1, Sigma-1 receptor (Homo sapiens, UniProt Q99720); test: Sigma 1 receptor radioligand binding (3H-pentazocine, Jurkat cells)
T1 construct: to the Sigma-1 receptor (Sigma-1R) of human-derived Jurkat cells; host or cells: Jurkat cells
T1 sequence (Q99720 whole entry): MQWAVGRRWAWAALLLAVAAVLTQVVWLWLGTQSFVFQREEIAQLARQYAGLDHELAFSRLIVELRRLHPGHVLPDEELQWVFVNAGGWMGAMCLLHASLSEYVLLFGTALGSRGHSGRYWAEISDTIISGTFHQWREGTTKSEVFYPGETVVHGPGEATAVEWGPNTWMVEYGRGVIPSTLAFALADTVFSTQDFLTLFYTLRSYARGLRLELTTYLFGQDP
Method: The experiments were carried out in the Eurofins Discovery laboratory, and the methods were referenced from previous studies with modifications ([Prasad et al., 1999]). Competitive binding of the samples and ^3H-pentazocine to the Sigma-1 receptor (Sigma-1R) of human-derived Jurkat cells was assessed using a radioligand binding method. The ability of the compound to bind competitively to the Sigma-1 receptor (Ki) was determined by detecting the signal value of the radioligand bound to the receptor.

[8] = Pharmacokinetic study in C57BL/6 mice; assay type: in vivo; conditions: male, C57BL/6, mouse, plasma, po, 20 mg/kg
Description: The assay was built in a way similar to that previously published by [Beconi et al. (2011)] with some modifications. A total of 36 male C57BL/6 mice, weighing between 20 and 22 g, were randomly divided into four groups of nine mice each. […] Mice in each group were numbered 1–9. Following the oral administration of the compounds in each group, blood was collected from the jugular vein at the specified time points, with three mice at each time point and two to three times for each mouse. 1–3 numbered mice had blood collection time points of 0.25, 1.5, and 7 h after the administration of the compounds, 4–6 numbered mice had blood collection time points of 0.5, 2, and 24 h after the administration of the compounds, and 7–9 numbered mice had blood collection time points of 1 and 5 h after the administration of the compounds. All blood samples were collected without anesthesia, and blood was collected in heparinized EP tubes. Plasma was obtained by centrifuging the blood at 10,000 rpm for 2 min at 4°C.

[9] = molecular target: T2, norepinephrine transporter (Homo sapiens, UniProt P23975); test: Norepinephrine transporter (NET) radioligand binding (3H-Nisoxetine)
T2 construct: purchased PerkinElmer, Inc RBHNETM400UA
T2 sequence (P23975 whole entry): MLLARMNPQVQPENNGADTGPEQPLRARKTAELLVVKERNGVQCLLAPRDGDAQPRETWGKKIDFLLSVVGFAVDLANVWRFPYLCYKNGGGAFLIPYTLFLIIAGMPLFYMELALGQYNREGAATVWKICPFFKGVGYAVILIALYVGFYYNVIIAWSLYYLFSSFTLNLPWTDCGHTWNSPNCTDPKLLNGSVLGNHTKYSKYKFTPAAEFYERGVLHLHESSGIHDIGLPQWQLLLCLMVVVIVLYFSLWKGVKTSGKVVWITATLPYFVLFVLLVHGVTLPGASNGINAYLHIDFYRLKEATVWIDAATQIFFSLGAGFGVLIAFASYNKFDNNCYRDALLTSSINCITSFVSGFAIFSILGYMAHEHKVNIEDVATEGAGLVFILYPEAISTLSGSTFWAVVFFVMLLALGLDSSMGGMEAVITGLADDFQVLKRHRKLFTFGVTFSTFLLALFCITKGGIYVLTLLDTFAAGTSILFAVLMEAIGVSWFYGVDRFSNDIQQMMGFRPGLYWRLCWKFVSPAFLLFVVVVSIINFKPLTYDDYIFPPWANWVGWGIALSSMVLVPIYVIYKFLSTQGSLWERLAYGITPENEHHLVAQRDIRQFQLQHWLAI
Method: The experiments were carried out in the Pharmaron laboratory, and the methods were referenced from previous studies with modifications ([Bylund and Toews, 1993]; [Galli et al., 1995]). Competitive binding of the compound and ^3H-Nisoxetine to NETs was assessed using a radioligand binding method. The ability of the compound to competitively bind to NET (Ki) was determined by detecting the signal value of the radioligand bound to the transporter using a Microbeta instrument (2450, Perkin Elmer, Massachusetts, United States).

[10] = molecular target: T3, nAchR α3β4 (Homo sapiens, UniProt P30926+P32297); test: nAchR α3β4 radioligand binding (125I-epibatidine, recombinant CHO-K1 cells)
T3 construct: host or cells: CHO-K1
T3 sequence (P32297 32-505): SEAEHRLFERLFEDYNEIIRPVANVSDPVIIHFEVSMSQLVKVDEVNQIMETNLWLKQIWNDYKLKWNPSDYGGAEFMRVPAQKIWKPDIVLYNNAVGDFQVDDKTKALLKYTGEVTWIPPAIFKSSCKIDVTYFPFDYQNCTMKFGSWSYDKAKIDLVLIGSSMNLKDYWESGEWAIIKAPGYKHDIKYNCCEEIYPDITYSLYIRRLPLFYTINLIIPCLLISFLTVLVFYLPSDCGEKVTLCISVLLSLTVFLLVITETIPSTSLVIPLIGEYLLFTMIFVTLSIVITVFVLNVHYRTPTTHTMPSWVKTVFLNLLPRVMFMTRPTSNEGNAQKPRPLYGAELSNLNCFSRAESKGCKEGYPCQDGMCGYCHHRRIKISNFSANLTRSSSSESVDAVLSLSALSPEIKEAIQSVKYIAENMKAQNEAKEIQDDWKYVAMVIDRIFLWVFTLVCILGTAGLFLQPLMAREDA
T3 sequence (P30926 22-498): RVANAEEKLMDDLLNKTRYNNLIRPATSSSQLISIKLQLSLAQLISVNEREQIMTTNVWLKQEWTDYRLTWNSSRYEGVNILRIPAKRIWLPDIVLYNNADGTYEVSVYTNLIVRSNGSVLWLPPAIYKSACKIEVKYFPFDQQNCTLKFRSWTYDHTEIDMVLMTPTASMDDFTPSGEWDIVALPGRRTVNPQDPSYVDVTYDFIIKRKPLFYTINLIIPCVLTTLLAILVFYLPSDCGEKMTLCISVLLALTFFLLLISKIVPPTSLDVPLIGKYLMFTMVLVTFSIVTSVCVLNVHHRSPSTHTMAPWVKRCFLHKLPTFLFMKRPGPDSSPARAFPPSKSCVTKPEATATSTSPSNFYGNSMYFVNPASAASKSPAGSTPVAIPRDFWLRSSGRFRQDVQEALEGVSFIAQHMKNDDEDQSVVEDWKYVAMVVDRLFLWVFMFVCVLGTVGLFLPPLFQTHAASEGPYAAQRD
Method: The experiments were carried out in the Eurofins Discovery laboratory, and the methods were referenced from previous studies with modifications ([Michelmore et al., 2002]; [Zaveri et al., 2010]). The competitive binding of the samples and ^125I-epibatidine to the nAchR α3β4 in human recombinant CHO-K1 cells was assessed using a radioligand binding method. The ability of the compound to competitively bind to nAchR α3β4 (Ki) was determined by detecting the signal value of the radioligand bound to the receptor.

[11] = test system: NMDA receptor; conditions: for Ki: read-out: Ki, NMDA receptor, 3H-MK801 competition, rat brain membranes, mean, n = 4
Method: Membrane preparation was performed as previously described ([Werling et al., 2007]). Briefly, the brains of male Sprague-Dawley rats were dissected for tissue collection. The tissue was then homogenized in ice-cold extraction solution and centrifuged at 40,000 × g for 10 min (minute). The supernatant was discarded, the precipitate was resuspended in extraction solution, and the above steps were repeated two times. Finally, the precipitate was resuspended in a 10-fold volume of resuspension solution and stored at −80°C. Protein concentration was determined using a PierceTM BCA Protein Assay Kit. The competitive binding of the compound and ^3H-MK801 to the NMDA receptor was evaluated utilizing the filtration binding method. This method involves washing unbound radioligands and subsequently quantifying the signal values of the radioligands bound to the NMDA receptor using a Microbeta instrument (catalog number: 2450, Perkin Elmer, Massachusetts, United States).

[12] = molecular target: T4, serotonin transporter (Homo sapiens, UniProt P31645); test: biochemical; assay type: binding; conditions: for Ki: radioligand competition, mean, n = 2
T4 construct: purchased PerkinElmer, Inc RBHSTM400UA
T4 sequence (P31645 whole entry): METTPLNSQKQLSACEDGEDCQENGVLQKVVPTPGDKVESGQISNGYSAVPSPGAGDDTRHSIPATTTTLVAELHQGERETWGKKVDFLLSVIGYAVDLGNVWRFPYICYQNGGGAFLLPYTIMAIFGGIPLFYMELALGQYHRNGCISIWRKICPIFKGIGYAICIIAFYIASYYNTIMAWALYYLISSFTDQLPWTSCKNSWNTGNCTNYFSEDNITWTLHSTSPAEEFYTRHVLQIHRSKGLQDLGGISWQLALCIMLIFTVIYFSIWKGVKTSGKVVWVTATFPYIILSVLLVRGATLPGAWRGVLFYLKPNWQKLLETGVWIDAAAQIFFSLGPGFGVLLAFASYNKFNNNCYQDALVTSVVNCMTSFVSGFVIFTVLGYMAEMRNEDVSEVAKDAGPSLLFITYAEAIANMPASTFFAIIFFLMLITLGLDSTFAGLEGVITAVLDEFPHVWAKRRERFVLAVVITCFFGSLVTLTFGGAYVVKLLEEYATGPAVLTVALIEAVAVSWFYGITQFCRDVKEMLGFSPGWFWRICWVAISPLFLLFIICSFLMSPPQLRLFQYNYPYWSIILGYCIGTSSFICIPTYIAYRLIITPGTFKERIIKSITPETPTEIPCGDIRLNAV
Method: The experiments were carried out in the Pharmaron laboratory, and the methods were referenced from previous studies with modifications ([Yang and Gouaux, 2021]). Competitive binding of the samples and ^3H-hydroxytryptamine creatine sulfate on SERT was assessed using a radioligand binding method. The ability of the compound to competitively bind to SERT (Ki) was determined by detecting the signal value of the radioligand bound to the transporter using a Microbeta instrument (2,450, Perkin Elmer, Massachusetts, United States).

Compound: CC(NC(C)(C)C)C(=O)c1cccc(Cl)c1 (centres unmarked) [BUP, bupropion]
- immobilization time compared to the vehicle group [1]: significantly reduced the immobilization time
- floating time compared to the vehicle group [2]: significantly reduced the floating time
- body temperature compared with the model (vehicle) group [3]: significantly increased the body temperature
- cough inhibition rate ([4]; 40 mg/kg, 0.5 h post-administration): 19.5%
- cough inhibition compared with the vehicle group ([4]; deDM 5 and 10 mg/kg, BUP 40 mg/kg, deDM + BUP 5 + 40 and 10 + 40 mg/kg): neither deDM nor BUP significantly inhibited cough

Compound: COc1ccc2c(c1)[C@]13CCCC[C@@H]1[C@H](C2)N(C)CC3 [DM, dextromethorphan]
- half-life at 1 μM ([5]; 1 μM, 0.5 mg/mL human liver microsomes, NADPH 1 mM, 37°C, mean, n = 2): 1.24 h
- CLint scaled at 1 μM ([5]; human, liver microsomes, read-out: CLint, in vitro): 23.4 mL/min/kg
- CLH ([5]; in vivo hepatic clearance predicted from CLint and hepatic blood flow 20.7 mL/min/kg, human): 11.0 mL/min/kg
- AUC(0-t) [6]: 194 ng·h/mL
- Cmax ([6]; read-out: Cmax): 56 ng/mL
- Ki [7]: 1.67 µM
- AUC(0-t) [8]: 184 ± 168 ng·h/mL
- Cmax ([8]; read-out: Cmax): 74.9 ± 49 ng/mL
- Ki [9]: 20.5 µM

Compound: CN1CC[C@@]23CCCC[C@@H]2[C@@H]1Cc1ccc(O)cc13 [DX, dextrorphan, reference compound]
- Ki [10]: 9.98 µM
- Ki [7]: 2.85 µM
- Ki [9]: 5.67 µM
- higher affinity for NMDA receptors compared to DM ([11]; ratio of Ki values): 7 fold
- Ki [11]: 0.22 µM
- Ki [12]: 0.14 µM
- lower affinity for SERT compared to DM ([12]; ratio of Ki values): 17 fold

Compound: deuterated dextrorphan [deDX]
- Ki ([10]; 125I-epibatidine competition, human recombinant CHO-K1 cells, mean, n = 2, read-out: Ki, α3β4 nicotinic acetylcholine receptors): 15 µM
- Ki ([7]; 3H-pentazocine competition, human-derived Jurkat cells, mean, n = 2, read-out: Ki, Sigma-1 receptor): 2.86 µM
- Ki ([9]; 3H-Nisoxetine competition, mean, n = 2, read-out: Ki, norepinephrine transporter): 7.93 µM
- Ki [11]: 0.42 µM
- Ki [12]: 0.12 µM
